Source: US20250134844A1, “THERAPEUTIC USE OF PLEUROMUTILINS” (Nabriva Therapeutics GmbH, priority 2022, published 2025)
In brackets after ≈: the same amount, converted by molar mass. Where two headings read alike, the source gives them in different places.

How the values were obtained:
[1] = system: Borreliella spp.; assay: MIC by broth microdilution against Borreliella isolates; assay type: cell-based; settings: range over 6 isolates (5 B. burgdorferi, 1 B. garinii)
Protocol: Minimal inhibitory concentrations (MIC) were determined against five (n=5) Borreliella burgdorferi isolates (ATCC 51990, 55131, 35211, 35210, 53899) and one (n=1) Borreliella garinii isolate (ATCC 51991) by broth microdilution technique (Dever, L. L., Jorgensen, J. H., Barbour, A. G. In vitro antimicrobial susceptibility testing of Boreliella burgdorferi: a microdilution MIC method and time-kill studies. J Clin Microbiol. 30(10), 2692-2697. (1992) doi: 10.1128/jcm.30.10.2692-2697.1992; Feng, J., Wang, T., Shi, W., et al. Identification of novel activity against Boreliella burgdorferi persisters using an FDA approved drug library. Emerg Microb Infect 3, e49 (2014) doi: 10.1038/emi.2014.53). The general procedures for broth microdilution were done according to the CLSI guidelines M7 and M100-S31 (CLSI. (2018) Methods for dilution antimicrobial susceptibility tests for bacteria that grow aerobically; Eleventh edition. M07.; CLSI. (2021) Performance Standards for Antimicrobial Susceptibility Testing; Thirty-first Edition. M100-S31).
Briefly, Borreliella spp. were grown at 36° C. under microaerophilic conditions in BSK II medium until the logarithmic or stationary growth phase was reached. The growth phase was determined by semiquantitative measurement of active and dormant cells by fluorescence microscopy of cells stained with the fluorescent dyes SYBR Green I and propidium iodide. An inoculum of 10^5−10^6 spirochetes/mL was used to inoculate broth microdilution plates containing serially 2-fold diluted test compounds.

[2] = system: T. pallidum Chicago strain; assay: In vitro susceptibility in co-culture with rabbit Sf1Ep cells, qPCR of tp0574 gene; assay type: cell-based, Treponema pallidum
Protocol: (§1) The in vitro susceptibility determination essentially followed the protocol described by Edmondson et al. (Edmondson, D. G., Hu, B., Norris, S. J. Long-Term In Vitro Culture of the Syphilis Spirochete Treponema pallidum subsp. pallidum. mBio 9(3) e01153-18. (2018). doi: 10.1128/mBio.01153-18).
(§2) Briefly, 3×10^3 rabbit Sf1Ep cells seeded in 96-well microtiter plates in 150 μl of culture media, were inoculated with the T. pallidum strains Chicago and SS14 at an inoculum of 3×10^3 (counted using dark field microscopy) in TpCM-2 medium that was equilibrated overnight at 34° C. in a microaerophilic environment consisting of 1.5% O2, 3.5% CO2 and 95% N2 supplied as a tri-gas mix. Lefamulin and penicillin G were added from 100-fold concentrated stocks in water to achieve the final test concentrations of 5, 2.5, 0.5, 0.1, 0.02. 0.01. 0.005, and 0.0025 μg/ml for Lefamulin and 60 ng/ml for penicillin G. Then the culture plates were incubated at 34° C. in a tri-gas incubator. Cells were then lysed and the DNA extracted using a Quick DNA-96 kit followed by the quantification of the treponemes by quantitative real-time PCR in triplicate targeting the tp0574 gene (Giacani L, Molini B, Godornes C, Barrett L, Van Voorhis WC, Centurion-Lara A, et al. Quantitative analysis of tpr gene expression in Treponema pallidum isolates: differences among isolates and correlation with T-cell responsiveness in experimental syphilis. Infect Immun. 75(1), 104-12 (2007). doi: 10.1128/IAI.01124-06).

[3] = system: T. pallidum SS14 strain; assay: as above; assay type: cell-based, Treponema pallidum
Protocol: as §1, §2

[4] = system: T. pallidum cells (Chicago strain); assay: Rabbit model of intradermal Treponema pallidum infection (syphilis); assay type: in vivo; settings: for lesion progression past the initial state of mild induration: 40 days observation; for T. pallidum mRNA (tp0574 message normalized to HPRT) in lesion biopsies: day 3 post-treatment initiation; for T. pallidum cells in lesion aspirates by DFM: since day 3 post-treatment initiation
Protocol: The preclinical study to test Lefamulin against T. pallidum was conducted in analogy to an investigation of the antibiotic compound linezolid (Haynes, A. M., Giacani, L., Vall Mayans, M., et al. Efficacy of linezolid on Treponema pallidum, the syphilis agent: A preclinical study. eBioMedicine 65, 103281 (2021). doi: 10.1016/j.ebiom.2021.103281).
In the syphilis infection model, each animal was infected intradermally (ID) with 10^6 freshly harvested, viable and infectious T. pallidum cells (Chicago strain) per site of infection on 10 sites on their shaved backs to induce appearance of primary syphilis lesions. Treponemal viability prior to ID infection was assessed by dark field microscopy (DFM). A dose of infectious treponemes (10^6/site of infection) induces the appearance of an erythematous lesion at the inoculation site within ˜5 days post-inoculation. Overall, the arch of lesion progression from the erythematous stage to the indurated, ulcerated, and healed stages encompasses approximately 4 weeks.
Herein, three groups of three rabbits were infected. Three animals were treated orally with 70 mg/kg Lefamulin every 12 h for 3 days (day 7 to day 10 post-infection). As positive control group, another three animals were treated with Benzathine penicillin G (BPG) as single intramuscular (IM) injection (300,000 units; equivalent w/w to 4.8 million units for humans). One group (n=3) served as untreated control. The cutaneous lesions were monitored macroscopically for clinical development, documented by photography on regular basis and measured for their diameter every day for a period of 40 days.
Treponemal burden within these lesions was assessed by taking needle aspirates from the lesions and analyzing the aspirates for pathogen cell count using DFM as well as quantification of treponemal DNA extracted from the aspirates at day 3, 8, 12, and 16 Additionally, mRNA extracted from lesion biopsies obtained post-treatment initiation was also quantified as a surrogate of viability. The gene copy number of the T. pallidum tp0574 gene was quantified by qPCR. Additionally, the tp0574 gene message was normalized to the message of the rabbit housekeeping gene HPRT to evaluate the burden of viable T. pallidum cells within lesion biopsies.

[5] = system: T. pallidum; assay: Rabbit infectivity test (RIT) with popliteal lymph nodes; assay type: in vivo; settings: for orchitis or seroconversion (VDRL, TPPA) of RIT rabbits: 3-months observation period, lymph nodes from treated test rabbits; for seroconversion in FTA-ABS test: RIT rabbits, control animals 3+ reactivity or higher
Source text: The test rabbits from Example 3 were used for a subsequent study in a RIT, wherein samples from the popliteal lymph nodes were transferred to new (naïve) rabbits, which were subsequently analyzed for disease symptoms and tested serologically (Haynes, A. M., Giacani, L., Vall Mayans, M., et al. Efficacy of linezolid on Treponema pallidum, the syphilis agent: A preclinical study. eBioMedicine 65, 103281 (2021). Doi: 10.1016/j.ebiom.2021.103281).
Following euthanasia, popliteal lymph nodes (LN) from all the rabbits in the Lefamulin, BPG, and control groups were harvested. Lymph nodes from each rabbit were pooled and homogenized in a solution containing equal amounts of sterile saline and serum from an uninfected rabbit. One milliliter of homogenate from each test rabbit was then inoculated into the left testicle of a naïve rabbit to perform the RIT. For the rabbit, which died at day 3 post-treatment initiation, lymph nodes were harvested and transferred to a RIT rabbit within 1 hour after the animal's death.
Inoculated animals were checked for orchitis twice weekly. Serum was collected monthly for three months and analyzed with two different serological tests, i.e. VDRL (Venereal Disease Research Laboratory; Becton-Dickinson, Franklin Lanes, NJ) and TPPA (Treponema pallidum Particle Agglutination; Fujirebio, Malvern, PA). Also an FTA-ABS test (Fluorescent Treponemal Antibody-Absorption; Trinity Biotech, Jamestown, NY) was performed.

[6] = 192 h, stationary growth phase cultures, read after 8 days, read-out: MIC (μg/mL) for Stationary Growth Phase Culture (n = 6)
[7] = logarithmic growth phase cultures, read after 5 or 6 days, read-out: MIC (μg/mL) for Logarithmic Growth Phase Culture (n = 6)

C[C@H]1COc2c(N3CCN(C)CC3)c(F)cc3c(=O)c(C(=O)O)cn1c23 [Levofloxacin]
MIC [1, 6]: 2 to 8 µg/mL (≈ 5.53 to 22.1 µM) | MIC [1, 7]: 2 to 4 µg/mL (≈ 5.53 to 11.1 µM)

CC1(C)S[C@@H]2[C@H](NC(=O)[C@H](N)c3ccc(O)cc3)C(=O)N2[C@H]1C(=O)O [Amoxicillin]
MIC [1, 6]: 0.03 to 0.12 µg/mL (≈ 0.0821 to 0.328 µM) | MIC [1, 7]: 0.03 to 0.12 µg/mL (≈ 0.0821 to 0.328 µM)

C=C[C@]1(C)C[C@@H](OC(=O)CSCCN(CC)CC)[C@]2(C)[C@H](C)CC[C@]3(CCC(=O)[C@H]32)[C@@H](C)[C@@H]1O [Tiamulin]
MIC [1, 6]: 0.03 to 0.25 µg/mL (≈ 0.0608 to 0.506 µM) | MIC [1, 7]: 0.03 to 0.5 µg/mL (≈ 0.0608 to 1.01 µM)

C=C[C@]1(C)C[C@@H](OC(=O)CS[C@@H]2CC[C@@H](N)C[C@H]2O)[C@]2(C)[C@H](C)CC[C@]3(CCC(=O)[C@H]32)[C@@H](C)[C@@H]1O [Lefamulin, 14-O-{[(1R, 2R, 4R)-4-amino-2-hydroxy-cyclohexylsulfanyl]-acetyl}-mutilin]
MIC [1, 6]: 0.001 to 0.008 µg/mL (≈ 0.00197 to 0.0158 µM) | MIC [1, 7]: 0.001 to 0.008 µg/mL (≈ 0.00197 to 0.0158 µM) | mean copy number of tp0574 gene ([2]; Chicago strain, at ≥10 ng/ml Lefamulin, day 7, untreated control 13,052 copies/μL): 324-403 copies/μL | MIC ([2]; Treponema pallidum, 168 h, T. pallidum Chicago strain, day 7, read-out: minimal inhibitory concentration (MIC)): ≥ 0.01 µg/mL | mean copy number of tp0574 gene ([3]; SS14 strain, at ≥10 ng/mL Lefamulin, day 7, untreated control 894 copies/μL): 33-124 copies/μL | inhibiting Lefamulin concentration ([3]; T. pallidum SS14 strain, inhibited at 10-20 ng/mL or higher): 10 to 20 ng/mL | death in treated group ([4]; 70 mg/kg orally every 12 h, day 3 of treatment, most likely inhalation of Lefamulin caused by reflux): one rabbit died | lesion progression past the initial state of mild induration [4]: None of the lesions in these two groups progressed past the initial state of mild induration | T. pallidum mRNA (tp0574 message normalized to HPRT) in lesion biopsies [4]: absent | lesions still measurable ([4]; day 9 post-treatment initiation): 14% | lesion diameter compared to the untreated controls ([4]; day 10 post-infection, end of treatment, p<0.05): significantly lower | day post-treatment initiation by which no induration could be measured at any site ([4]; post-treatment initiation): ≤ 13 days | T. pallidum cells in lesion aspirates by DFM [4]: no treponemal bacteria could be found | orchitis or seroconversion (VDRL, TPPA) of RIT rabbits [5]: None of the animals developed orchitis or seroconverted | seroconversion in FTA-ABS test [5]: none of the BGP or Lefamulin treated animals seroconverted

CC1(C)S[C@@H]2[C@H](NC(=O)Cc3ccccc3)C(=O)N2[C@H]1C(=O)O [penicillin G]
copy number of tp0574 gene ([2]; Chicago strain, penicillin G 60 ng/mL): 247 copies/μL | copy number of tp0574 gene ([3]; SS14 strain, penicillin G 60 ng/mL): 91 copies/μL

C=C[C@]1(C)C[C@@H](OC(=O)CO)[C@]2(C)[C@H](C)CC[C@]3(CCC(=O)[C@H]32)[C@@H](C)[C@@H]1O [Pleuromutilin]
MIC [1, 6]: 0.12 to 2 µg/mL (≈ 0.317 to 5.28 µM) | MIC [1, 7]: 0.12 to 1 µg/mL (≈ 0.317 to 2.64 µM)

CC1(C)S[C@@H]2[C@H](NC(=O)Cc3ccccc3)C(=O)N2[C@H]1C(=O)O.CC1(C)S[C@@H]2[C@H](NC(=O)Cc3ccccc3)C(=O)N2[C@H]1C(=O)O.c1ccc(CNCCNCc2ccccc2)cc1 [BPG, Benzathine penicillin G]
lesion progression past the initial state of mild induration [4]: None of the lesions in these two groups progressed past the initial state of mild induration | T. pallidum mRNA (tp0574 message normalized to HPRT) in lesion biopsies [4]: absent | measured sites resolved ([4]; day 9 post-BPG administration): 95% | measured sites resolved ([4]; day 12 post-treatment): 100% | T. pallidum cells in lesion aspirates by DFM [4]: no treponemal bacteria could be found | orchitis or seroconversion (VDRL, TPPA) of RIT rabbits [5]: None of the animals developed orchitis or seroconverted | seroconversion in FTA-ABS test [5]: none of the BGP or Lefamulin treated animals seroconverted

C[C@H]1c2cccc(O)c2C(=O)C2=C(O)[C@]3(O)C(=O)C(C(N)=O)=C(O)[C@@H](N(C)C)[C@@H]3[C@@H](O)[C@@H]21 [Doxycycline]
MIC [1, 6]: 0.03 to 0.5 µg/mL (≈ 0.0675 to 1.13 µM) | MIC [1, 7]: 0.03 to 0.5 µg/mL (≈ 0.0675 to 1.13 µM)

CO/N=C(\C(=O)N[C@@H]1C(=O)N2C(C(=O)O)=C(CSc3nc(=O)c(=O)[nH]n3C)CS[C@H]12)c1csc(N)n1 [Ceftriaxone]
MIC [1, 6]: 0.004 to 0.03 µg/mL (≈ 0.00721 to 0.0541 µM) | MIC [1, 7]: 0.004 to 0.016 µg/mL (≈ 0.00721 to 0.0289 µM)

CO/N=C(\C(=O)N[C@@H]1C(=O)N2C(C(=O)O)=C(COC(N)=O)CS[C@H]12)c1ccco1 [Cefuroxime]
MIC [1, 6]: 0.016 to 0.25 µg/mL (≈ 0.0377 to 0.589 µM) | MIC [1, 7]: 0.016 to 0.25 µg/mL (≈ 0.0377 to 0.589 µM)

CC[C@H]1OC(=O)[C@H](C)[C@@H](O[C@H]2C[C@@](C)(OC)[C@@H](O)[C@H](C)O2)[C@H](C)[C@@H](O[C@@H]2O[C@H](C)C[C@H](N(C)C)[C@H]2O)[C@](C)(O)C[C@@H](C)C(=O)[C@H](C)[C@@H](O)[C@]1(C)O [Erythromycin]
MIC [1, 6]: 0.001 to 0.004 µg/mL (≈ 0.00136 to 0.00545 µM) | MIC [1, 7]: 0.002 to 0.016 µg/mL (≈ 0.00273 to 0.0218 µM)

CC[C@H]1OC(=O)[C@H](C)[C@@H](O[C@H]2C[C@@](C)(OC)[C@@H](O)[C@H](C)O2)[C@H](C)[C@@H](O[C@@H]2O[C@H](C)C[C@H](N(C)C)[C@H]2O)[C@](C)(O)C[C@@H](C)CN(C)[C@H](C)[C@@H](O)[C@]1(C)O [Azithromycin]
MIC [1, 6]: 0.001 to 0.004 µg/mL (≈ 0.00134 to 0.00534 µM) | MIC [1, 7]: 0.001 to 0.004 µg/mL (≈ 0.00134 to 0.00534 µM)
